The values below come from doi:10.1101/094631v2 (biorxiv, 2017).

The structures appear in SMILES notation.

This assay deals with BIKE kinase domain (biotinylated) (Homo sapiens, UniProt Q9NSY1). As to the kind of experiment: TR-FRET tracer displacement. It is filed as binding. (In general: In TR-FRET formats the signal depends on donor and acceptor labels being close together.)
BIKE kinase domain (biotinylated), sequence (Q9NSY1 38-345 limits assumed): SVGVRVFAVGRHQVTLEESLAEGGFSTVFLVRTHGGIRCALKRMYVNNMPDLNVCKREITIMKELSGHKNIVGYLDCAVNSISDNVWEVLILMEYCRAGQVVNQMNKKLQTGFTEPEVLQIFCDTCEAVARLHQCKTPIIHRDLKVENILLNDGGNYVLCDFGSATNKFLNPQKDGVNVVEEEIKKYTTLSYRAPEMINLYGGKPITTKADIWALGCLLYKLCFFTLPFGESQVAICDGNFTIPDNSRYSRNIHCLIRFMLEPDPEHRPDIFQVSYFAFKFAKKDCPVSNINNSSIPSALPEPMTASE

In turn, `CC(C)C(=O)Nc1n[nH]c2cc(-c3cccc(NS(=O)(=O)C4CC4)c3)ccc12` [compound 2, N-(6-(3-(cyclopropanesulfonamido)phenyl)-1H-indazol-3-yl)isobutyramide] gave an inhibition constant Ki of 3.1 µM.

In general, Ki refers to the dissociation constant of the complex between target and ligand, obtained from inhibition or displacement.
